{
  "source": "PubChem BioAssay (NCI)",
  "test_in_all_cases": "growth of human tumour cells (NCI), 384-well format",
  "key": {"786-0 renal": {"test_system": "786-0 renal"}, "A498 renal": {"test_system": "A498 renal"}, "A549 NSCLC": {"test_system": "A549 NSCLC"}, "ACHN renal": {"test_system": "ACHN renal"}, "BT-549 breast": {"test_system": "BT-549 breast"}, "CAKI-1 renal": {"test_system": "CAKI-1 renal"}, "CCRF-CEM leukemia": {"test_system": "CCRF-CEM leukemia"}, "COLO 205 colon": {"test_system": "COLO 205 colon"}, "DU-145 prostate": {"test_system": "DU-145 prostate"}, "HCC-2998 colon": {"test_system": "HCC-2998 colon"}, "HCT-116 colon": {"test_system": "HCT-116 colon"}, "HCT-15 colon": {"test_system": "HCT-15 colon"}, "HL-60(TB) leukemia": {"test_system": "HL-60(TB) leukemia"}, "HOP-62 NSCLC": {"test_system": "HOP-62 NSCLC"}, "HOP-92 NSCLC": {"test_system": "HOP-92 NSCLC"}, "HT29 colon": {"test_system": "HT29 colon"}, "IGROV1 ovarian": {"test_system": "IGROV1 ovarian"}, "K-562 leukemia": {"test_system": "K-562 leukemia"}, "KM12 colon": {"test_system": "KM12 colon"}, "LOX IMVI melanoma": {"test_system": "LOX IMVI melanoma"}, "M14 melanoma": {"test_system": "M14 melanoma"}, "MCF7 breast": {"test_system": "MCF7 breast"}, "MDA-MB-468 breast": {"test_system": "MDA-MB-468 breast"}, "NCI-H226 lung": {"test_system": "NCI-H226 lung"}, "NCI-H23 lung": {"test_system": "NCI-H23 lung"}, "NCI-H460 NSCLC": {"test_system": "NCI-H460 NSCLC"}, "NCI-H522 lung": {"test_system": "NCI-H522 lung"}, "NCI/ADR-RES ovarian": {"test_system": "NCI/ADR-RES ovarian"}, "OVCAR-3 ovarian": {"test_system": "OVCAR-3 ovarian"}, "OVCAR-8 ovarian": {"test_system": "OVCAR-8 ovarian"}, "RPMI-8226 leukemia": {"test_system": "RPMI-8226 leukemia"}, "SF-268 CNS": {"test_system": "SF-268 CNS"}, "SF-295 CNS": {"test_system": "SF-295 CNS"}, "SF-539 CNS": {"test_system": "SF-539 CNS"}, "SK-MEL-2 melanoma": {"test_system": "SK-MEL-2 melanoma"}, "SK-MEL-28 melanoma": {"test_system": "SK-MEL-28 melanoma"}, "SK-MEL-5 melanoma": {"test_system": "SK-MEL-5 melanoma"}, "SK-OV-3 ovarian": {"test_system": "SK-OV-3 ovarian"}, "SN12C renal": {"test_system": "SN12C renal"}, "SNB-19 CNS": {"test_system": "SNB-19 CNS"}, "SNB-75 CNS": {"test_system": "SNB-75 CNS"}, "SR leukemia": {"test_system": "SR leukemia"}, "SW-620 colon": {"test_system": "SW-620 colon"}, "U251 glioblastoma": {"test_system": "U251 glioblastoma"}, "UACC-257 melanoma": {"test_system": "UACC-257 melanoma"}, "UACC-62 melanoma": {"test_system": "UACC-62 melanoma"}, "UO-31 renal": {"test_system": "UO-31 renal"}},
  "note": "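Here, GI50 denotes the concentration required for 50% inhibition of growth. Definition used: TGI = concentration required for complete inhibition of growth.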",
  "data": [
    {"smiles": "Nc1ccn(C2OC(CO)C(O)C2O)c(=O)n1", "note": "(stereo not drawn)", "values": [
      {"measurement": "GI50", "setting": "786-0 renal", "value": 218, "unit": "nM"},
      {"measurement": "GI50", "setting": "A498 renal", "value": 270, "unit": "nM"},
      {"measurement": "GI50", "setting": "A549 NSCLC", "value": 75.1, "unit": "nM"},
      {"measurement": "GI50", "setting": "ACHN renal", "value": 196, "unit": "nM"},
      {"measurement": "TGI", "setting": "ACHN renal", "value": 1110, "unit": "nM"},
      {"measurement": "GI50", "setting": "BT-549 breast", "value": 602, "unit": "nM"},
      {"measurement": "GI50", "setting": "CAKI-1 renal", "value": 446, "unit": "nM"},
      {"measurement": "GI50", "setting": "CCRF-CEM leukemia", "value": "< 13.7", "unit": "nM"},
      {"measurement": "TGI", "setting": "CCRF-CEM leukemia", "value": 20.5, "unit": "nM"},
      {"measurement": "GI50", "setting": "COLO 205 colon", "value": 58.8, "unit": "nM"},
      {"measurement": "TGI", "setting": "COLO 205 colon", "value": 2640, "unit": "nM"},
      {"measurement": "GI50", "setting": "DU-145 prostate", "value": 501, "unit": "nM"},
      {"measurement": "TGI", "setting": "DU-145 prostate", "value": "> 30800", "unit": "nM"},
      {"measurement": "GI50", "setting": "HCC-2998 colon", "value": 84.7, "unit": "nM"},
      {"measurement": "GI50", "setting": "HCT-116 colon", "value": 69.5, "unit": "nM"},
      {"measurement": "GI50", "setting": "HCT-15 colon", "value": 328, "unit": "nM"},
      {"measurement": "GI50", "setting": "HL-60(TB) leukemia", "value": 182, "unit": "nM"},
      {"measurement": "TGI", "setting": "HL-60(TB) leukemia", "value": 759, "unit": "nM"},
      {"measurement": "GI50", "setting": "HOP-62 NSCLC", "value": 63.9, "unit": "nM"},
      {"measurement": "TGI", "setting": "HOP-62 NSCLC", "value": 706, "unit": "nM"},
      {"measurement": "GI50", "setting": "HOP-92 NSCLC", "value": 10600, "unit": "nM"},
      {"measurement": "GI50", "setting": "HT29 colon", "value": 1480, "unit": "nM"},
      {"measurement": "GI50", "setting": "IGROV1 ovarian", "value": 2390, "unit": "nM"},
      {"measurement": "GI50", "setting": "K-562 leukemia", "value": 155, "unit": "nM"},
      {"measurement": "GI50", "setting": "KM12 colon", "value": 6670, "unit": "nM"},
      {"measurement": "GI50", "setting": "LOX IMVI melanoma", "value": 286, "unit": "nM"},
      {"measurement": "TGI", "setting": "LOX IMVI melanoma", "value": 9950, "unit": "nM"},
      {"measurement": "GI50", "setting": "M14 melanoma", "value": 148, "unit": "nM"},
      {"measurement": "TGI", "setting": "M14 melanoma", "value": 1950, "unit": "nM"},
      {"measurement": "GI50", "setting": "MCF7 breast", "value": 99.1, "unit": "nM"},
      {"measurement": "GI50", "setting": "MDA-MB-468 breast", "value": 1140, "unit": "nM"},
      {"measurement": "GI50", "setting": "NCI-H226 lung", "value": 1740, "unit": "nM"},
      {"measurement": "GI50", "setting": "NCI-H23 lung", "value": 106, "unit": "nM"},
      {"measurement": "TGI", "setting": "NCI-H23 lung", "value": 1010, "unit": "nM"},
      {"measurement": "GI50", "setting": "NCI-H460 NSCLC", "value": 34.3, "unit": "nM"},
      {"measurement": "TGI", "setting": "NCI-H460 NSCLC", "value": 366, "unit": "nM"},
      {"measurement": "GI50", "setting": "NCI-H522 lung", "value": 85.8, "unit": "nM"},
      {"measurement": "GI50", "setting": "NCI/ADR-RES ovarian", "value": 446, "unit": "nM"},
      {"measurement": "GI50", "setting": "OVCAR-3 ovarian", "value": 6700, "unit": "nM"},
      {"measurement": "GI50", "setting": "OVCAR-8 ovarian", "value": 102, "unit": "nM"},
      {"measurement": "GI50", "setting": "RPMI-8226 leukemia", "value": 3490, "unit": "nM"},
      {"measurement": "GI50", "setting": "SF-268 CNS", "value": 1030, "unit": "nM"},
      {"measurement": "GI50", "setting": "SF-295 CNS", "value": 2140, "unit": "nM"},
      {"measurement": "TGI", "setting": "SF-295 CNS", "value": 12000, "unit": "nM"},
      {"measurement": "GI50", "setting": "SF-539 CNS", "value": 1800, "unit": "nM"},
      {"measurement": "TGI", "setting": "SF-539 CNS", "value": "> 95600", "unit": "nM"},
      {"measurement": "GI50", "setting": "SK-MEL-2 melanoma", "value": "> 21400", "unit": "nM"},
      {"measurement": "GI50", "setting": "SK-MEL-28 melanoma", "value": 171, "unit": "nM"},
      {"measurement": "GI50", "setting": "SK-MEL-5 melanoma", "value": 249, "unit": "nM"},
      {"measurement": "TGI", "setting": "SK-MEL-5 melanoma", "value": 790, "unit": "nM"},
      {"measurement": "GI50", "setting": "SK-OV-3 ovarian", "value": 1890, "unit": "nM"},
      {"measurement": "GI50", "setting": "SN12C renal", "value": 1240, "unit": "nM"},
      {"measurement": "GI50", "setting": "SNB-19 CNS", "value": 738, "unit": "nM"},
      {"measurement": "TGI", "setting": "SNB-19 CNS", "value": "> 27200", "unit": "nM"},
      {"measurement": "GI50", "setting": "SNB-75 CNS", "value": 8640, "unit": "nM"},
      {"measurement": "GI50", "setting": "SR leukemia", "value": 103, "unit": "nM"},
      {"measurement": "TGI", "setting": "SR leukemia", "value": 235, "unit": "nM"},
      {"measurement": "GI50", "setting": "SW-620 colon", "value": 581, "unit": "nM"},
      {"measurement": "GI50", "setting": "U251 glioblastoma", "value": 1060, "unit": "nM"},
      {"measurement": "GI50", "setting": "UACC-257 melanoma", "value": 2230, "unit": "nM"},
      {"measurement": "TGI", "setting": "UACC-257 melanoma", "value": "> 42500", "unit": "nM"},
      {"measurement": "GI50", "setting": "UACC-62 melanoma", "value": 732, "unit": "nM"},
      {"measurement": "GI50", "setting": "UO-31 renal", "value": 406, "unit": "nM"}
    ]}
  ]
}
